Test [1] deals with T1, PARP-1 (Homo sapiens, UniProt P09874). Nature of the test: PET imaging of tracer retention in animal models of tumor radiation therapy. Type of test: in vivo, mice. On the set-up: endogenous in cells; host or cells: HeLa xenografts and orthotopic MDA-MB-231 tumours in mice. The source says: FIG. 8 illustrates a schematic showing animal studies performed with ^18F-PEG2-NAD (Substrate-based PARP-1 Activity Reporter: ^18F-SuPAR)
FIGS. 9A-9C illustrate the validation of ^18F-SuPAR in mice bearing HeLa tumor xenografts following radiation therapy.
FIGS. 10A-10C illustrate the validation of ^18F-SuPAR in mice bearing orthotopic MDA-MB-231 tumors following radiation therapy.
FIGS. 11A-11D illustrate the validation of PARP-1 as target of ^18F-SuPAR following inhibition by BMN673.
One advantageous tracer probe of the disclosure is an efficient analog of NAD that has been labelled by ^18F-radionuclide for PET imaging. It is contemplated, however, that other radionuclides detectable by PET imaging technology can be used in place of ^18F. Previously unknown relationships between NAD modification and PARP-1 substrate potential have been elucidated to synthesize the tracer, 6N-(triazo-PEG2-^18F)-NAD. This tracer was validated for PARP-1 activity in vivo in two animal models of tumor radiation therapy. […] Results were confirmed ex vivo by autoradiography and immunofluorescence analysis of tumor sections.

Test [2] deals with T1, PARP-1. Nature of the test: gel-shift assay for in vitro assessment of PARP-1 activity. Type of test: biochemical.
The next test concerns the target PARG (Homo sapiens, UniProt Q86W56). As to the kind of experiment: PARG-mediated degradation of PAR formed from probe (gel). The note with it: FIG. 4D. The format is biochemical. The source says:
FIG. 4A illustrates novel substrate-based PARP-1 probes assessed for in vitro PARP-1 activity and PARG-mediated degradation of PAR.

Another test deals with T2, ARH3 (Homo sapiens, UniProt Q9NX46).
T2 sequence (Q9NX46 1-363): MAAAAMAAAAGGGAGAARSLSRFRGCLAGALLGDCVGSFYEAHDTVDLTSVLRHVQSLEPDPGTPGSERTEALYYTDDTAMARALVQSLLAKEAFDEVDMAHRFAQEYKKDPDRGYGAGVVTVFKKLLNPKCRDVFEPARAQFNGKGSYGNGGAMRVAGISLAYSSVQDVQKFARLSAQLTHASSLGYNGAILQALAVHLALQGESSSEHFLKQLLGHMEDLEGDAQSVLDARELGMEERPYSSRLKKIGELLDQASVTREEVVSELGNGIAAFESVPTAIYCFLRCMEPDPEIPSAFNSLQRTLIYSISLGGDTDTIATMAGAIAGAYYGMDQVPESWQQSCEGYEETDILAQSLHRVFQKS
Nature of the test: ARH3-mediated degradation of PAR formed from probe (gel). The format is biochemical. The note with it: FIG. 4D.

T1 sequence (P09874 whole entry): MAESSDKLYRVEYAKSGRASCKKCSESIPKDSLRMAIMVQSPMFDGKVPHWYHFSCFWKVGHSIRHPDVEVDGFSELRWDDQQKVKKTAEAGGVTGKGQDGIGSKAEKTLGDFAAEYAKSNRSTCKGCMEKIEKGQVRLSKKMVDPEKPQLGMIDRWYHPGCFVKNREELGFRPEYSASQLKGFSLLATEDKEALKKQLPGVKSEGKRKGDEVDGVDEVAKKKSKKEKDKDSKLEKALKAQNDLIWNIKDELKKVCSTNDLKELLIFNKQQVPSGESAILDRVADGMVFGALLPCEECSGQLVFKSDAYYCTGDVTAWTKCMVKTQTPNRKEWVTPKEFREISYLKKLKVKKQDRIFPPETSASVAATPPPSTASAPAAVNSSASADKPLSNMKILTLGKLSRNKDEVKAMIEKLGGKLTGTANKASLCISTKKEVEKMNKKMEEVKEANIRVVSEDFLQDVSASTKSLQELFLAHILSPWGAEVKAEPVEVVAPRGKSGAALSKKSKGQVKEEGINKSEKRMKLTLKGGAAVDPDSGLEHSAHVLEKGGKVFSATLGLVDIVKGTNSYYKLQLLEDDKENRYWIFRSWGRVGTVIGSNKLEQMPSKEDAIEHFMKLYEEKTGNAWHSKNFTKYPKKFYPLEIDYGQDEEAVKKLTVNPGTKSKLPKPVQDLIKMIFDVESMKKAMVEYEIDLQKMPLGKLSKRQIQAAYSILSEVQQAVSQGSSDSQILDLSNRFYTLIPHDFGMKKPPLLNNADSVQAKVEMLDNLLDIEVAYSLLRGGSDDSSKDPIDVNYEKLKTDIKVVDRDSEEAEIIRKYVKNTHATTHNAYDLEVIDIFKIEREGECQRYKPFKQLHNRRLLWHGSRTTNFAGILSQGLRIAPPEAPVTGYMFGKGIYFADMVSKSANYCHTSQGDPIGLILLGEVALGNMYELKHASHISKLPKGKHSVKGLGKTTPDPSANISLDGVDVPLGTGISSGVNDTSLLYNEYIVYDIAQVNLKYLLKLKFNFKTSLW
Chain of PARG (Q86W56 whole entry, species assumed): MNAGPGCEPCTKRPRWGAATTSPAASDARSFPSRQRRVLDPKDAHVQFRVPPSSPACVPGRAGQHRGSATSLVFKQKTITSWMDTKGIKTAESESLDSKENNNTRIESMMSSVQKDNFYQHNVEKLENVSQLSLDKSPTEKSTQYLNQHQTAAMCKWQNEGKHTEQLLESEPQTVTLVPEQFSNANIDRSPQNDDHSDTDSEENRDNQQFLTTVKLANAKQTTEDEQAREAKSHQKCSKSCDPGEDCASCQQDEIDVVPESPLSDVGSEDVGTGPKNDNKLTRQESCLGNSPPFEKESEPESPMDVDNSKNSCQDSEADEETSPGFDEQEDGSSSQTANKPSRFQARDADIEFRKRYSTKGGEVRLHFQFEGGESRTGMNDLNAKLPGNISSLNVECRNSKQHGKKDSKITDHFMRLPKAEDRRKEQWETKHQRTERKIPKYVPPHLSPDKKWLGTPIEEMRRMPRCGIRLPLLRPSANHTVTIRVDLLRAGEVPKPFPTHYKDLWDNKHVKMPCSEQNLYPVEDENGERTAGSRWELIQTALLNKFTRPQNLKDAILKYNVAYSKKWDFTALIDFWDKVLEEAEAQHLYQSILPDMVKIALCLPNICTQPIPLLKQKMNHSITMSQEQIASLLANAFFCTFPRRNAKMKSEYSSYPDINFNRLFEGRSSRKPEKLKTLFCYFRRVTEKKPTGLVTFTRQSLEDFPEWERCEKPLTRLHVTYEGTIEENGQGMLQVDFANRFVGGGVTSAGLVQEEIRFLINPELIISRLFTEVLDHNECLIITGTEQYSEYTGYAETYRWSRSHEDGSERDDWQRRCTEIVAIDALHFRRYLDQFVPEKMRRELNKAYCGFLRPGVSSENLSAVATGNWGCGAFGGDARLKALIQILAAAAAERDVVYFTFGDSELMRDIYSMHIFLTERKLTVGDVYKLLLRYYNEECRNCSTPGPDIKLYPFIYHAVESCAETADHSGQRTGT

Take `NC(=O)c1ccc[n+](C2OC(COP(=O)(O)OP(=O)(O)OCC3OC(n4cnc5c(NCc6cn(COCC[18F])nn6)ncnc54)C(O)C3O)C(O)C2O)c1` (stereo not shown) [6N-(triazo-PEG2-^18F)-NAD]: the “tracer retention with increasing doses of radiation” value on PARP-1 [1] (0, 5, 10 Gy, two animal models of tumor radiation therapy) was “dose-dependence of tracer retention was observed”. At PARP-1 [1] (in vivo, confirmed ex vivo by autoradiography and immunofluorescence), the “probe target verification using a highly potent PARP-1 inhibitor” value is given as “verified as PARP-1”. In addition, the “time-dependence of maximal tracer uptake” value on PARP-1 [1] (two animal models of tumor radiation therapy) is reported as “tumor-type specific”.
For `C#CCNc1ncnc2c1ncn2[C@@H]1O[C@H](COP(=O)(O)OP(=O)(O)OC[C@H]2O[C@@H]([n+]3cccc(C(N)=O)c3)[C@H](O)[C@@H]2O)[C@@H](O)[C@H]1O` [LCD11, Nicotinamide 6-N-propargyladenine dinucleotide], the “incorporation into high molecular weight PAR” value at PARP-1 [2] (low percentage ratios of alkyne probe to NAD, FIG. 6B) was “incorporation into high molecular weight PAR occurs”.
As to `NC(=O)c1ccc[n+]([C@@H]2O[C@H](COP(=O)(O)OP(=O)(O)OC[C@H]3O[C@@H](n4cnc5c(NCc6cn(CCOCCOCCF)nn6)ncnc54)[C@H](O)[C@@H]3O)[C@@H](O)[C@H]2O)c1` [LCD67], the “degradation by PARG” value on PARG is recorded as “resistance to degradation”. Further, the “degradation by ARH3” value at ARH3 is “resistance to degradation”.
Regarding `Nc1cccc2c(=O)[nH][nH]c(=O)c12` [luminol, reference compound], the “inhibition of PARP-1” value at PARP-1 [2] (gel, FIG. 2A) is “inhibits PARP-1”.

These data come from patent US10196412B2, “Probe for imaging PARP-1 activity” (The Board of Trustees of the Leland Stanford Junior …, priority 2014, dated 2019).
